Assay results from patent US20250049930A1, “PROTAC MOLECULES TARGETING FOXP3 AND USES THEREOF” (CEDARS-SINAI MEDICAL CENTER, priority 2022, published 2025).
Residues, ends and D or L forms follow the SMILES beside them. *: point of attachment. X1 = O=C1CCC(N2C(=O)c3cccc(*)c3C2=O)C(=O)N1; PEG4 = NCCOCCOCCOCCOCCC(=O)O

Target: T1, FoxP3 (Mus musculus, UniProt Q99JB6)
T1 construct: from tissue; host or cells: peripheral blood and spleen of mice
T1 sequence (Q99JB6 1-429): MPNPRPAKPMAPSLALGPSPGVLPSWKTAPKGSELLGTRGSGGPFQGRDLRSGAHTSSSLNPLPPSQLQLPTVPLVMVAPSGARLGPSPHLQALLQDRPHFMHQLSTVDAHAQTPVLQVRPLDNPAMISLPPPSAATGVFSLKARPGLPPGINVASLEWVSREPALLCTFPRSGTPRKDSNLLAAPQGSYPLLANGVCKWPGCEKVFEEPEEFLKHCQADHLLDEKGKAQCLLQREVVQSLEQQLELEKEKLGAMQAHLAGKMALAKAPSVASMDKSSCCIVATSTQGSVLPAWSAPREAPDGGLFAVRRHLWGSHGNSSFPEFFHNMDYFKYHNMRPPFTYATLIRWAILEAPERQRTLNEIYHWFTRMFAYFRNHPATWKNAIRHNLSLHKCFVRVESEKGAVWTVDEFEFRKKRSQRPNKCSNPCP
Assay: FoxP3 in CD4+ cells of mouse splenocytes treated in vitro, flow cytometry
Type: cell-based
Description: FIGS. 2A-2E depict that a proteolysis-targeting chimera (PROTAC) targeting FoxP3 (PF) degraded FoxP3 in vitro and in vivo. P-FoxP3 forms a ternary complex with cereblon and FoxP3. Surface plasmon resonance (SPR) assay was used to measure the equilibrium dissociation constant (KD) for the ternary complex consisting of cereblon, P-FoxP3 and FoxP3 (FIG. 2A). SPR assay was used to measure the KD for the binary complex consisting of cereblon and P-FoxP3 (FIG. 2B). Mouse splenocytes were treated in vitro with varying PF concentrations and percent of CD4+ cells staining for intracellular FoxP3 was assessed by flow cytometry. (FIG. 2C). […] 72 hours later, FoxP3 positive CD4+ cells in peripheral blood and spleen were assessed by flow cytometry (FIG. 2D). FoxP3 positive CD4+ cells in peripheral blood were assessed by flow cytometry at various timepoints following PF administration (FIG. 2E). […]
To determine if PF results in the degradation of FoxP3, mouse splenocytes were treated in vitro with varying concentrations of PF and percent of CD4+ cells staining for intracellular FoxP3 was assessed by flow cytometry. […] 72 hours later, FoxP3 positive CD4+ cells in peripheral blood and spleen were assessed by flow cytometry. […] To understand the time course of FoxP3 decrease, serial blood draws were assessed after a single injection of PF (FIG. 2E). […]

## CSCC[C@H](NC(=O)[C@H](C)NC(=O)[C@H](Cc1ccccc1)NC(=O)[C@H](Cc1ccccc1)NC(=O)[C@@H]1CCCN1C(=O)[C@H](Cc1c[nH]c2ccccc12)NC(=O)[C@H](CCSC)NC(=O)[C@H](CCCCN)NC(=O)[C@H](CCCNC(=N)N)NC(=O)[C@H](Cc1ccccc1)NC(=O)[C@H](CO)NC(=O)[C@H](CCC(N)=O)NC(=O)[C@H](Cc1ccccc1)NC(=O)[C@H](CC(=O)O)NC(=O)[C@H](CCCNC(=N)N)NC(=O)CCOCCOCCOCCOCCNc1cccc2c1C(=O)N(C1CCC(=O)NC1=O)C2=O)C(=O)O (some centres unmarked) [PF, Pomalidomide-PEG4-RDFQSFRKMWPFFAM] ({X1-PEG4}-RDFQSFRKMWPFFAM-OH)
Fresh mouse splenocytes cultured with IL-2, 1 μm P-FoxP3, 7 days, vs without P-FoxP3
  FoxP3 in CD4+ cells: degraded FoxP3 in CD4+ cells
Mouse splenocytes treated in vitro with varying PF concentrations
  percent of CD4+ cells staining for intracellular FoxP3: decreased in a dose-dependent manner
